Like-named read-outs stand apart in the source and are kept apart here.
Columns and labels:
[1] = Particle size of nucleic acid lipid particles (Luc2-siRNA); format: physicochemical; settings: compound/DSPC/cholesterol/DMG-PEG2000 50/10/38.5/1.5
Outline: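 Lipid particles formed from oil phase (test lipid/DSPC/cholesterol/DMG-PEG2000, 50/10/38.5/1.5 molar, 20 mmol/L total in ethanol) micromixed 1:3 with Luc2-siRNA in pH 4 acetate buffer (19.7 μmol/L); siRNA/lipid 339 mol/mol, PBS-diluted and dialyzed. Size measured on ELS-Z2 dynamic light scattering.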

[2] = Nucleic acid encapsulation rate of nucleic acid lipid particles (FVII-siRNA); format: physicochemical
Description: A 3 mol/L aqueous sodium acetate solution (30 μL) and 9 μL of glycogen were added to 60 μL of the lipid particles retaining nucleic acids, and then 1.5 mL of ethanol was added thereto such that only the nucleic acids were precipitated while the lipid was dissolved. Then, the supernatant was removed by centrifugation. After the precipitates were air-dried for 15 minutes or longer, water was added thereto such that the precipitates were redissolved, and the concentration thereof was measured using Nanodrop NF1000 (Thermo Fisher Scientific), thereby quantifying the total nucleic acid concentration.
The nucleic acid concentration was quantified using a Quant-iT RiboGreen RNA Assay Kit (Thermo Fisher Scientific) according to the protocol. First, a 20×TE buffer included in the above kit was diluted with water, thereby obtaining a 1×TE buffer. TE represents Tris/EDTA (ethylenediaminetetraacetic acid). In order to quantify only the nucleic acid in the outer water phase, the dispersion liquid of lipid particles retaining nucleic acids was diluted 10,000× with the 1×TE buffer.
The 10,000× diluted dispersion liquid of lipid particles (100 μL) was put in a 96-well plate, then 100 μL of a RiboGreen reagent (reagent included in the Quanti-iT Ribogreen RNA Assay Kit described above) diluted 2000× with the 1×TE buffer was added to a sample, and fluorescence (excitation wavelength: 485 nm, fluorescence wavelength: 535 nm) was measured using a plate reader Infinit EF200 (TECAN), thereby quantifying the nucleic acid concentration in the outer water phase.
By using the total nucleic acid concentration obtained through the above steps and the quantified nucleic acid concentration in the outer water phase, the nucleic acid encapsulation rate of the nucleic acid lipid particles was calculated according to the following Equation. Nucleic acid encapsulation rate (%)=(total nucleic acid concentration−nucleic acid concentration in outer water phase)/total nucleic acid concentration×100 The results are shown in Table 2.
(§1) The Factor VII (FVII) protein was measured according to the method described in Nature Biotechnology (2010) 28, 172-176. C57BL6/J mice were randomly grouped (n=3). A dispersion liquid of nucleic acid lipid particles was prepared by the same method as that in <Preparation of nucleic acid lipid particles>, except that FVII-siRNA having the sequence described in Molecular Therapy (2009) 17, p. 878 was used instead of Luc-siRNA. The dispersion liquid was administered to the caudal vein of the mice at a dosage of 0.1 mg/kg. For comparison, PBS at the same volume was administered to the caudal vein of the mice. Twenty four hours after the administration, blood was collected from the caudal vena cava, thereby obtaining plasma. The amount of FVII protein was quantified using the obtained plasma and a Biophen FVII assay kit (Aniara).

[3] = Encapsulation rate of siRNA in nucleic acid lipid particles (Luc2-siRNA); format: physicochemical; settings: compound/DSPC/cholesterol/DMG-PEG2000 50/10/38.5/1.5
Outline: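 Encapsulation rate was calculated as (total − outer-phase siRNA)/total ×100. Total siRNA was quantified spectrophotometrically after lipid-dissolving ethanol precipitation, and unencapsulated siRNA by RiboGreen in TE (ex 485/em 535 nm). The particles were test lipid/DSPC/cholesterol/DMG-PEG2000 at 50/10/38.5/1.5, formed by microfluidic mixing with Luc2-siRNA at pH 4 and dialyzed against PBS.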

[4] = system: Factor VII (FVII) protein; assay: Measurement of Factor VII (FVII) protein in mouse plasma after FVII-siRNA lipid particles; format: in vivo, C57BL6/J mice; settings: 0.1 mg/kg caudal vein, plasma 24 hours after administration, PBS group = 100%
Description: as §1
The FVII amount in the plasma sample of each individual in the PBS administration group was regarded as 100%, and the ratio of the FVII amount in the plasma sample of each individual to 100% was adopted as a measurement value.

[5] = Particle size of nucleic acid lipid particles (FVII-siRNA); format: physicochemical
Description: The compounds described in Table 2, L-α-distearoylphosphatidylcholine (trade name: COATSOME® MC-8080; NOF corporation), cholesterol (trade name: Choesterol HP; NIPPON FINE CHEMICAL CO., LTD.), and 1,2-dimyristoyl-rac-glycero-3-(methylpolyoxyethylene 2000) (hereinafter, called DMG-PEG2000) (trade name: SUNBRIGHT® GM-020; NOF corporation) were dissolved in ethanol at a molar ratio of 50/10/38.5/1.5 such that the total lipid concentration became 20 mmol/L, thereby obtaining an oil phase.
An aqueous nucleic acid solution obtained by dissolving 5 mg of Luc2-siRNA having the sequence described in Biomacromolecules (2013) 14, p. 3905 in 1 mL of sterile water was diluted with 10 mmol/L acetate buffer having a pH 4 such that the nucleic acid concentration became 19.7 μmol/L, thereby obtaining a water phase. Then, the water phase and the oil phase were mixed together by a micromixer (see JP5288254B) using a syringe pump such that the volume ratio of water phase:oil phase became 3:1 (final ratio of siRNA/lipid=339 (mol/mol)), and the mixed solution was diluted 2× with PBS, thereby obtaining a dispersion liquid of nucleic acid lipid particles. The dispersion liquid was dialyzed (Slide-A-Lyzer G2, MWCO: 10 kD, Thermo Fisher Scientific) using a phosphate buffered saline such that ethanol was removed, thereby obtaining nucleic acid lipid particles.
The particle size of the nucleic acid lipid particles was measured by the same method as that in <Preparation of lipid particles>.
as §1

[6] = system: DMS273 cells constantly expressing Luc; assay: Target reporter protein (Luc) knockdown in cell, reporter protein assay; format: cell-based; settings: Homo sapiens, DMS-273
Description: The nucleic acid lipid particles prepared by the same method as that in <Preparation of nucleic acid lipid particles> by using the compounds described in Table 3 were evaluated by reporter assay by the following method.
By using pGL4.50 Luc2 (E1310 Promega), DMS273 cells (human small cell lung cancer) (European Collection of Authenticated Cell Cultures) constantly expressing Luc were prepared. RPMI (Gibco) (10% FBS (Gibco), 1% Penicillin-Streptomycin (Gibco), and 200 μg/mL Hygromycin (Wako)) was used as a culture medium. DMS273 cells (2.0×10^3) constantly expressing luciferase (Luc) were seeded in a 96-well plate and cultured in a 5% CO2 incubator for 24 hours, and then the medium was replaced. Then, 10 μL of each of the dispersion liquids of lipid particles diluted with PBS (Gibco) to yield a concentration of 1 to 1,000 nmol/L was added to the 96-well plate, and the final concentration was adjusted to 0.1 to 100 nmol/L (total amount of liquid: 110 μl). Thereafter, the cells were cultured in a 5% CO2 incubator for 24 hours, the medium was then replaced, and the cells were further cultured for 24 hours.
After the viable cell count was determined, the expression amount of Luc was quantified using a Steady Glo assay kit (Promega), and the knockdown efficiency was calculated according to the following equation. Then, the IC50 concentration at which the expression amount of Luc was knocked down to 50% was calculated.

[7] = Luc2-siRNA lipid particles using the compound, siRNA 0.1 to 100 nmol/L, concentration at which Luc expression is knocked down to 50%, read-out: IC50

IC50 [6, 7] | Structure (SMILES) | Relative amount of FVII protein (%) [4] | further results
– | CCCCC/C=C\C/C=C\CCCCCCCCC(CCCCCCCC/C=C\C/C=C\CCCCC)OC(=O)OCCCN(C)C [Comparative Example 8, 3-(Dimethylamino)propyl((6Z,9Z,28Z,31Z)-heptatriaconta-6,9,28,31-tetraen-19-yl)carbonate, reference compound] | 58% | Particle size (nm) [1]: 63.1 nm; Nucleic acid encapsulation rate [2]: 78%; Nucleic acid encapsulation rate [3]: 59%; Particle size (nm) [5]: 63.4 nm
14 nM | CCCCCCCC/C=C\CCCCCCCC(=O)OCCCCCCC(CCCCCCOC(=O)CCCCCCC/C=C\CCCCCCCC)OC(=O)OCCN(CC)CCN(CC)CC [Example 41, 7-(((2-((2-(diethylamino)ethyl)(ethyl)amino)ethoxy)carbonyl)oxy)tridecane-1,13-diyldioleate] | 18% | –
43 nM | CCCCCCCC/C=C\CCCCCCCC(=O)OCCCCCCC(CCCCCCOC(=O)CCCCCCC/C=C\CCCCCCCC)OC(=O)OCCN(CCN(CC)CC)C(C)C [Example 48, 7-(((2-((2-(Diethylamino)ethyl)(isopropyl)amino)ethoxy)carbonyl)oxy)tridecane-1,13-diyldioleate] | 20% | –
19 nM | CCCCCCCCC(CCCCCC)C(=O)OCCCCCCC(CCCCCCOC(=O)C(CCCCCC)CCCCCCCC)OC(=O)OCCN(CC)CCN(CC)CC (centres unmarked) [Example 56, 7-(((2-((2-(Diethylamino)ethyl)(ethyl)amino)ethoxy)carbonyl)oxy)tridecane-1,13-diylbis(2-hexyldecanoate)] | 3% | –
– | CCCCCCCCCC(CCCCCCC)C(=O)OCCCCCCC(CCCCCCOC(=O)C(CCCCCCC)CCCCCCCCC)OC(=O)OCCN(CC)CCN(CC)CC (centres unmarked) [Example 58, 7-(((2-((2-(Diethylamino)ethyl)(ethyl)amino)ethoxy)carbonyl)oxy)tridecane-1,13-diylbis(2-heptylundecanoate)] | 14% | –
– | CCN(CC)CCN(CC)CCOC(=O)OC(CCCCCCOC(=O)C(CCC(C)CC(C)(C)C)C(C)CC(C)(C)C)CCCCCCOC(=O)C(CCC(C)CC(C)(C)C)C(C)CC(C)(C)C (centres unmarked) [Example 59, 7-(((2-((2-(Diethylamino)ethyl)(ethyl)amino)ethoxy)carbonyl)oxy)tridecane-1,13-diylbis(2-(4,4-dimethylpentan-2-yl)-5,7,7-trimethyloctanoate)] | 10% | –
– | CCCCCCCCC(CCCCCC)C(=O)OCCCCCCC(CCCCCCOC(=O)C(CCCCCC)CCCCCCCC)OC(=O)OCCN(CCN(CC)CC)C(C)C (centres unmarked) [Example 62, 7-(((2-((2-(Diethylamino)ethyl)(isopropyl)amino)ethoxy)carbonyl)oxy)tridecane-1,13-diylbis(2-hexyldecanoate)] | 3% | –
– | CCCCCCCCC(CCCCCCCC)CC(=O)OCCCCCCC(CCCCCCOC(=O)CC(CCCCCCCC)CCCCCCCC)OC(=O)OCCN(CC)CCN(CC)CC [Example 65, 7-(((2-((2-(Diethylamino)ethyl)(ethyl)amino)ethoxy)carbonyl)oxy)tridecane-1,13-diylbis(3-octylundecanoate)] | 11% | –
22 nM | CCCCCCC(CCCCCC)CC(=O)OCCCCCCC(CCCCCCOC(=O)CC(CCCCCC)CCCCCC)OC(=O)OCCN(CC)CCN(CC)CC [Example 67, 7-(((2-((2-(Diethylamino)ethyl)(ethyl)amino)ethoxy)carbonyl)oxy)tridecane-1,13-diylbis(3-hexylnonanoate)] | 5% | –
– | CCCCCCCC(CCCCCCC)CC(=O)OCCCCCCC(CCCCCCOC(=O)CC(CCCCCCC)CCCCCCC)OC(=O)OCCN(CC)CCN(CC)CC [Example 70, 7-(((2-((2-(diethylamino)ethyl)(ethyl)amino)ethoxy)carbonyl)oxy)tridecane-1,13-diylbis(3-heptyldecanoate)] | 6% | IC50 [6]: 24 nM
– | CCCCCCCCC(CCCCCC)C(=O)OCCCCCC(CCCCCOC(=O)C(CCCCCC)CCCCCCCC)OC(=O)OCCN(CC)CCN(CC)CC (centres unmarked) [Example 71, 6-(((2-((2-(Diethylamino)ethyl)(ethyl)amino)ethoxy)carbonyl)oxy)undecane-1,11-diylbis(2-hexyldecanoate)] | 4% | –
– | CCCCCCCCC(CCCCCC)C(=O)OCCCCC(CCCCOC(=O)C(CCCCCC)CCCCCCCC)OC(=O)OCCN(CC)CCN(CC)CC (centres unmarked) [Example 73, 5-(((2-((2-(Diethylamino)ethyl)(ethyl)amino)ethoxy)carbonyl)oxy)nonane-1,9-diylbis(2-hexyldecanoate)] | 1% | IC50 [6]: 24 nM
– | CCCCCCCCC(CCCCCCCC)C(=O)OCCCCCCC(CCCCCCOC(=O)C(CCCCCCCC)CCCCCCCC)OC(=O)OCCN(CC)CCN(CC)CC [Example 74, 7-(((2-((2-(Diethylamino)ethyl)(ethyl)amino)ethoxy)carbonyl)oxy)tridecane-1,13-diylbis(2-octyldecanoate)] | 4% | IC50 [6]: 22 nM
18 nM | CCCCCCCC(CCCCCCC)C(=O)OCCCCCCC(CCCCCCOC(=O)C(CCCCCCC)CCCCCCC)OC(=O)OCCN(CC)CCN(CC)CC [Example 76, 7-(((2-((2-(Diethylamino)ethyl)(ethyl)amino)ethoxy)carbonyl)oxy)tridecane-1,13-diylbis(2-heptylnonanoate)] | 4% | –
